According to patent US8293208B2, “Fluorinated fructose derivatives for PET imaging” (The Governors of the University of Alberta, priority 2009, dated 2012):

Tests used:
[1] = tested on: MDA-MB-231 cells; assay: Inhibition of [14C]-D-fructose transport (hexose flux) in MDA-MB-231 cells; format: cell-based, human
Description: (§1) Both MCF-7 and MDA-MB-231 cells (Gifts from Dr. David Murray, Cross Cancer Institute, Edmonton, Canada) were grown in a 37° C., 5% CO2 incubator, in Gibco® DMEM-F12 supplemented with 15 mM HEPES, L-glutamine, 10% fetal bovine serum and 1% penicillin/streptomycin with media renewal every 2 to 3 days. For cell flux studies, cells were grown to confluence in 12-well plates with media renewal every two days. Two hours before performing the flux experiment, the media was removed, and the cells washed twice with phosphate buffered saline solution (PBS). Glucose-free Krebs-Ringer solution was added to the wells (120 mM NaCl, 25 mM NaHCO3, 4 mM KCl, 1.2 mM KH2PO4, 2.5 mM MgSO4, 70 uM CaCl2, pH 7.4) to deprive the cells of nutrients and to set up a zero-trans experiment. After two hours, cells were removed from the incubator, and the respective experiments were performed. Radioactive “Hot” flux solutions were made up using the Krebs-Ringer solution previously mentioned and radiolabelled [^14C]-D-glucose (Amersham), [^14C]-D-fructose (Moravek Biochemicals), or [^14C]6FDF (proprietary) at a specific activity of approximately 1 μCi/ml. For determining background levels of radioactivity, a sodium reduced Krebs solution was made (70 mM NaCl, 25 mM NaHCO3, 4 mM KCl, 1.2 mM KH2PO4, 2.5 mM MgSO4, 70 μM CaCl2, pH 7.4) with the addition of either 100 mM D-glucose or 100 mM D-fructose to outcompete the binding sites of the specific GLUT transporters under examination. […] Three 150 μl samples from each well were placed into scintillation counter vials, and 4 ml of ScintiSafe™ liquid scintillation fluid (Fisher) was added. The vials were then placed in a Beckman™ LS 6500 multi-purpose liquid scintillation counter to be quantified. All counts were then normalized to standards and corrected for background accumulation of isotope.
(§2) All uptake values were corrected for their respective adhering extracellular substrate, and Ki values were determined using non-linear regression in GraphPad Prism™ 5 (GraphPad Software, Inc., La Jolla, Calif.). ANOVA analysis was also performed in GraphPad Prism™ 5.

[2] = tested on: MCF-7 cells; assay: [14C]-6-deoxy-6-fluoro-D-fructose uptake in MCF-7 cells; format: cell-based, human; details: for uptake time course: 90 minute incubation, MCF-7, corrected for non-mediated hexose uptake
Description: as §1, §2

[3] = tested on: MCF-7 cells; assay: Inhibition of [14C]-D-fructose transport (hexose flux) in MCF-7 cells; format: cell-based, human
Description: as §1, §2

[4] = Storage stability; format: physicochemical; details: prolonged storage
[5] = tested on: MDA-MB-231 cells; assay: Inhibition of [14C]-D-glucose transport (hexose flux) in MDA-MB-231 cells; format: cell-based, human; details: for Ki: [14C]-D-glucose
Description: (§3) Both MCF-7 and MDA-MB-231 cells (Gifts from Dr. David Murray, Cross Cancer Institute, Edmonton, Canada) were grown in a 37° C., 5% CO2 incubator, in Gibco® DMEM-F12 supplemented with 15 mM HEPES, L-glutamine, 10% fetal bovine serum and 1% penicillin/streptomycin with media renewal every 2 to 3 days. For cell flux studies, cells were grown to confluence in 12-well plates with media renewal every two days. Two hours before performing the flux experiment, the media was removed, and the cells washed twice with phosphate buffered saline solution (PBS). Glucose-free Krebs-Ringer solution was added to the wells (120 mM NaCl, 25 mM NaHCO3, 4 mM KCl, 1.2 mM KH2PO4, 2.5 mM MgSO4, 70 uM CaCl2, pH 7.4) to deprive the cells of nutrients and to set up a zero-trans experiment. After two hours, cells were removed from the incubator, and the respective experiments were performed. Radioactive “Hot” flux solutions were made up using the Krebs-Ringer solution previously mentioned and radiolabelled [^14C]-D-glucose (Amersham), [^14C]-D-fructose (Moravek Biochemicals), or [^14C]6FDF (proprietary) at a specific activity of approximately 1 μCi/ml. For determining background levels of radioactivity, a sodium reduced Krebs solution was made (70 mM NaCl, 25 mM NaHCO3, 4 mM KCl, 1.2 mM KH2PO4, 2.5 mM MgSO4, 70 μM CaCl2, pH 7.4) with the addition of either 100 mM D-glucose or 100 mM D-fructose to outcompete the binding sites of the specific GLUT transporters under examination. After applying the test flux solution, incubations lasted for 25 minutes, where the cells were then rinsed twice with ice-cold Krebs-Ringer to stop the transport, and then lysed using 500 μl 5% trichloracetic acid and left to sit on a shaker bed overnight. […] The vials were then placed in a Beckman™ LS 6500 multi-purpose liquid scintillation counter to be quantified. […]
(§4) All uptake values were corrected for their respective adhering extracellular substrate, and Ki values were determined using non-linear regression in GraphPad Prism™ 5 (GraphPad Software, Inc., La Jolla, Calif.). […]

[6] = tested on: MCF-7 cells; assay: Inhibition of [14C]-D-glucose transport (hexose flux) in MCF-7 cells; format: cell-based, human; details: for Ki: [14C]-D-glucose
Description: as §3, §4

[7] = tested on: MDA-MB-231 cells; assay: [14C]-6-deoxy-6-fluoro-D-fructose uptake in MDA-MB-231 cells; format: cell-based, human; details: 90 minute incubation, MDA-MB-231, corrected for non-mediated hexose uptake
Description: Both MCF-7 and MDA-MB-231 cells (Gifts from Dr. David Murray, Cross Cancer Institute, Edmonton, Canada) were grown in a 37° C., 5% CO2 incubator, in Gibco® DMEM-F12 supplemented with 15 mM HEPES, L-glutamine, 10% fetal bovine serum and 1% penicillin/streptomycin with media renewal every 2 to 3 days. For cell flux studies, cells were grown to confluence in 12-well plates with media renewal every two days. Two hours before performing the flux experiment, the media was removed, and the cells washed twice with phosphate buffered saline solution (PBS). […] For determining background levels of radioactivity, a sodium reduced Krebs solution was made (70 mM NaCl, 25 mM NaHCO3, 4 mM KCl, 1.2 mM KH2PO4, 2.5 mM MgSO4, 70 μM CaCl2, pH 7.4) with the addition of either 100 mM D-glucose or 100 mM D-fructose to outcompete the binding sites of the specific GLUT transporters under examination. […] The vials were then placed in a Beckman™ LS 6500 multi-purpose liquid scintillation counter to be quantified. […]
as §4

[8] = increasing concentrations, MDA-MB-231
[9] = increasing concentrations, MCF-7
[10] = listed as [^14C]-labelled 6-deoxy-6-fluoro-D-fructose

In the case of `C=C1[C@@H](C)[C@H]2[C@H](Cc3ccccc3)NC(=O)[C@]23OC(=O)/C=C/[C@H](O)CCC[C@@H](C)C/C=C/[C@H]3[C@@H]1O` [CB, cytochalasin B, reference compound], the “share of total fructose flux inhibited (GLUT2-mediated)” value ([1]; 100 μM CB, [14C]-D-fructose, 90 minute flux, MDA-MB-231) is reported as “approximately 30%”, the “effect on 6-deoxy-6-fluoro-D-fructose transport” value ([2]; 100 μM CB, [14C]-6-deoxy-6-fluoro-D-fructose, 60 minutes, MCF-7) is reported as “no significant transport difference” and the “effect on fructose transport” value ([3]; 100 μM CB, [14C]-D-fructose, 60 minutes, MCF-7) is reported as “no significant transport difference”. For the same molecule, the “share of total fructose flux inhibited (GLUT2-mediated)” value ([3]; 100 μM CB, [14C]-D-fructose, 90 minute flux, MCF-7) was “about 12%”.
In the case of `OCC1(O)O[C@H](CF)[C@@H](O)[C@@H]1O` (stereo partly drawn) [6-deoxy-6-fluoro-D-fructose], the Ki ([1]; [14C]-D-fructose, 25 minute incubation, MDA-MB-231, n=3) is reported as 330 ± 153 µM, the “inhibition of [14C]-D-fructose transport, in words” value [1, 8] is reported as “dose dependent inhibition” and the stability during storage [4] is reported as “not stable during prolonged storage”. The Ki ([3]; [14C]-D-fructose, 25 minute incubation, MCF-7, n=3) was 154 ± 54 µM, the “inhibition of [14C]-D-fructose transport, in words” value [3, 9] was “dose dependent inhibition” and the Ki ([5]; 25 minute incubation, MDA-MB-231, n=3) was 6210 ± 2860 µM. The Ki ([5]; MDA-MB-231 (FIG. 7B)) was 6210 ± 2860 µM, the “inhibition of [14C]-D-glucose transport, in words” value [5, 8] was “dose dependent inhibition” and the Ki ([6]; 25 minute incubation, MCF-7, n=3) was roughly 916 µM. For the same molecule, the Ki ([6]; MCF-7 (FIG. 7A)) was roughly 916 µM and the “inhibition of [14C]-D-glucose transport, in words” value [6, 9] was “dose dependent inhibition”.
For `O=C(CO)[C@@H](O)[C@H](O)[C@H](O)CF` [[^14C]-6-deoxy-6-fluoro-D-fructose], the uptake time course [2] was “Near linear uptake”, the uptake time course [2, 10] was “Near linear uptake over time” and the “increase in uptake compared to [14C]-D-fructose” value ([2]; MCF-7, one hour incubation, 2-way ANOVA p=0.0028) was “almost two-fold increase”. The uptake time course [7] was “Near linear uptake” and the uptake time course [7, 10] was “Near linear uptake over time”.
